Tests used:
[1] = test system: COS-7 cells expressing EGFP tagged wild-type HD exon 1 protein with 23 glutamine repeats, EGFP-polyalanine with 7 repeats or empty EGFP; assay: Control constructs (Q23, A7, empty EGFP) in transiently transfected COS-7 cells; format: cell-based, African green monkey; conditions: 10 mM 3-MA
Procedure: African green monkey kidney cells (COS-7) were grown in Dulbecco's Modified Eagle Medium (DMEM, Sigma) supplemented with 10% Fetal Bovine Serum (FBS), 100 U/ml Penicillin/Streptomycin, 2 mM L-Glutamine and 1 mM Sodium Pyruvate at 37° C., 5% Carbon dioxide. The cells were grown on coverslips in six-well plates for immunofluorescence analysis, or were directly grown in six-well plates to 60-80% confluency for 24 hours for western blot analysis. Transfection was done using LipofectAMINE reagent (Invitrogen) using the manufacturer's protocol. The transfection mixture was replaced by normal culture medium after 5 hours incubation at 37° C. and the transfected cells were analysed by immunofluorescence or immunoblot 48 hours after transfection. […] Equal amounts of water or DMSO were added to the untreated controls, where relevant. The cells on coverslips were rinsed with 1×PBS, fixed with 4% paraformaldehyde in 1×PBS for 20 min and mounted in […] supplemented with 4',6-diamidino-2-phenylindole (DAPI, 3 μg/ml, Sigma) to allow visualisation of nuclear morphology. […] Aggregate formation and nuclear morphology were assessed using a fluorescence microscope. 200 EGFP positive COS-7 cells were selected and the proportion of cells with aggregates was counted. […]

[2] = test system: COS-7 cells expressing an exon 1 fragment of the HD gene with 74 glutamines (Q74); assay: Aggregate formation and abnormal cell nuclei in transiently transfected COS-7 cells expressing Q74; format: cell-based, African green monkey; conditions: 24 hours post transfection; 0.2 μg/ml rapamycin
[3] = cited from earlier work
[4] = test system: Drosophila HD model expressing the first 171 residues of huntingtin with 120 glutamines (120Q) in photoreceptors; assay: Drosophila HD model, pseudopupil analysis of photoreceptor neurodegeneration; format: in vivo
Procedure: A Drosophila line y; w; gmr-Q120 was crossed to w; iso2; iso3 to obtain progeny heterozygous for the transgene gmr-Q120. Flies were allowed to mate on normal food for 2-3 days and then transferred to food containing 1 μM rapamycin (Sigma) or DMSO. After eclosion, flies were placed on food containing 1 μM rapamycin or DMSO. Flies were transferred to newly prepared food every day.
Pseudopupil analysis: Adult male flies were decapitated and the head was mounted onto a microscope slide using nail polish. Analysis was performed with an optical microscope using a 60× objective with the observer blinded to the identity of the slides. Approximately 75 ommatidia were evaluated for each group (approx. 15 ommatidia in 5 individuals). Each experiment was done twice. The frequency of ommatidia with different numbers of visible rhabdomeres was based on all visible photoreceptor neurons, irrespective of their shape or brightness. Flies were raised at 25° C. with 12/12-h light/dark-cycle, 70% humidity.
A Drosophila HD model that expresses the first 171 residues of huntingtin with 120 glutamines (120Q) in photoreceptors (Jackson, G. R., et al. Neuron 21, 633-642 (1998)) was used to test whether long-term mTOR inhibition with rapamycin would have beneficial effects in vivo. The mutant flies show photoreceptor neurodegeneration, a phenotype that is easily quantifiable using the pseudopupil technique (Franceschini, N. & Kirschfeld K. Kybernetik 9, 159-182 (1971)). No degeneration is seen in flies expressing analogous constructs with 20Q (wild-type transgenics). The compound eye of Drosophila comprises many ommatidia. An ommatidium normally contains eight photoreceptor neurons with light gathering parts called rhabdomeres, seven of which can be easily visualized using the pseudopupil technique. The number of visible rhabdomeres in each ommatidium decreases as a function of time when there is photoreceptor neurodegeneration, like in the 120Q fly lines.

| Compound | aggregate formation in cells expressing Q23 or A7 [1] | levels of empty EGFP [1] | cell death in Q74-expressing cells [2] | proportions of cells with Q74 aggregates [2] | water solubility [3] | 120Q-induced photoreceptor degeneration ([4]; 1 μM rapamycin in food from larval stage into adulthood, vs DMSO) | number of visible rhabdomeres per ommatidium ([4]; 1 μM rapamycin in food, two and three days after eclosion, p<0.0001) | frequency of ommatidia with seven rhabdomeres ([4]; HD 120Q flies, 2 and 3 days post-eclosion) |
| --- | --- | --- | --- | --- | --- | --- | --- | --- |
| Cn1cnc(N)c2ncnc1-2 [3-MA, 3-methyl adenine] | did not cause aggregate formation | did not cause any change | – | – | – | – | – | – |
| rapamycin | – | – | reduced | reduced | poor | dramatically rescued | significantly increased | dramatically increases |

— patent US20070155771A1, “Methods and means for treating protein conformational disorders” (priority 2003, published 2007)
